pEC50: −log10 of the molar value. In brackets after ≈: the same amount, converted by molar mass. Where two headings read alike, the source gives them in different places. Positions of bridges follow the written chain, without caps; N, C: chain ends. Non-standard residues stand in square brackets, D forms with d. Residues, ends and D or L forms follow the SMILES beside them. Lys(N3) = [N-]=[N+]=NCCCC[C@H](N)C(=O)O; R8 = C=CCCCCCC[C@@](C)(N)C(=O)O; Cba = N[C@@H](CC1CCC1)C(=O)O; S5 = C=CCCC[C@](C)(N)C(=O)O; βAla = NCCC(=O)O
Tests used:
[1] = test system: Ca Ski cell line; details: 72 h
Method in brief: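 Compound dilution series (10 points, 3-fold, 10 mM top stock in DMSO) tested on overnight-plated Ca Ski cells in RPMI1640/10% FBS and on blasticidin-selected p53RE-bla HCT-116 cells in McCoy's 5A; read-out was CellTiter-Glo 2.0 luminescence after room-temperature equilibration.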

[2] = Solubility assay (kinetic solubility, PBS pH 7); type: physicochemical; details: for solubility kinetic: pH 7, aqueous buffer, kinetic from dmso stock, read-out: Solubility
Method in brief: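 Values derive from peak-area ratios of sample versus a 100 µM standard, scaled by that standard's concentration.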

[3] = Lactate dehydrogenase (LDH) release assay; type: cell-based
Method in brief: (§1)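 HCT116 cells stably carrying a p53-responsive β-lactamase reporter, seeded at 8000 cells/well, exposed to compound with 0.5% final DMSO. LDH release read with the CytoTox-ONE membrane integrity kit. Values are geometric means of at least three biological replicates.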

[4] = EPSA; type: physicochemical
[5] = Experimental LogD (partition coefficient); details: for logD: not stated, Partition Coeff LogD
[6] = in vitro
Method in brief: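 Azido-peptide permeability was read as loss of NanoBRET signal (donor 450 nm, acceptor 610 nm) after adding NanoBret618-azide at 10 μM final.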

[7] = test system: HCT116 cells; assay: Lactate dehydrogenase (LDH) release assay; type: cell-based
Method in brief: as §1

[8] = test system: Jump-In T-REx CHO-K1 BLA cells; assay: cells; type: cell-based; details: Supplementary Table 1; 0% serum, 4 hours
[9] = Nanoclick permeability assay EC50
[10] = 0% FBS 4Hr, read-out: LDH: Cytotoxicity assay: EC50
[11] = 10% FBS 16Hr, read-out: LDH: Cytotoxicity assay: EC50

Row | SMILES | pEC50 [1] | Solubility [2] | Solubility ([2]; pH 7, PBS) | pEC50 ([3]; LDH: Cytotoxicity assay: EC50) | EPSA ([4]; EPSA) | Partition Coeff LogD [5] | cell entry EC50 [6, 9] | solubility kinetic ([2]; pH 7, PBS) | pEC50 [3, 10] | pEC50 [3, 11] | LDH: Cytotoxicity assay: % Effect ([7]; 0% FBS 4Hr) | LDH: Cytotoxicity assay: % Effect ([7]; 10% FBS 16Hr) | logD [5] | cell entry EC50 [6] | LDH: Cytotoxicity assay: % Effect [7] | off-target effects (LDH release and/or counterscreen activity) [8] | EPSA [4]
1 | CC(=O)N[C@@H](CCCCN=[N+]=[N-])C(=O)NCCC(=O)N[C@@H](CC(C)C)C(=O)N[C@H](C(=O)N[C@@H](Cc1ccccc1)C(=O)N[C@]1(C)CCCCCCC=CCCC[C@@](C)(C(=O)N[C@@H](C)C(=O)N[C@@H](C)C(=O)N[C@@H](C)C(=O)N[C@@H](C)C(=O)N[C@@H](C)C(=O)N[C@@H](Cc2ccccc2)C(N)=O)NC(=O)[C@H](CC2CCC2)NC(=O)[C@H](CCC(N)=O)NC(=O)[C@H](C)NC(=O)[C@H](Cc2c[nH]c3ccccc23)NC(=O)[C@H](Cc2ccc(O)cc2)NC(=O)[C@H](CCC(=O)O)NC1=O)[C@@H](C)O [MP-060] (Ac-[Lys(N3)][βAla]LTF[R8]EYWAQ[Cba][S5]AAAAAF-NH2; staple 6-13) | < 4.30 | P.B. | Poorly Behaved | < 4.29 | 198 A^2 | Poorly Behaved | 1.09 µM | – | – | – | – | – | – | – | – | – | –
2 | CC(=O)N[C@@H](CCCCN=[N+]=[N-])C(=O)NCCC(=O)N[C@@H](CC(C)C)C(=O)N[C@H](C(=O)N[C@@H](Cc1ccccc1)C(=O)N[C@]1(C)CCCCCCC=CCCC[C@@](C)(C(=O)N[C@@H](C)C(=O)N[C@@H](C)C(=O)N[C@@H](Cc2ccccc2)C(=O)N[C@@H](C)C(=O)N[C@@H](C)C(=O)N[C@H](C)C(N)=O)NC(=O)[C@H](CC2CCC2)NC(=O)[C@H](CCC(N)=O)NC(=O)[C@H](C)NC(=O)[C@H](Cc2c[nH]c3ccccc23)NC(=O)[C@H](Cc2ccc(O)cc2)NC(=O)[C@H](CCC(=O)O)NC1=O)[C@@H](C)O [MP-228] (Ac-[Lys(N3)][βAla]LTF[R8]EYWAQ[Cba][S5]AAFAA[dA]-NH2; staple 6-13) | 4.51 | – | – | < 4.29 | 199 A^2 | – | 2.51 µM | 2 µM (≈ 4.49 µg/mL) | – | – | – | – | – | – | – | – | –
3 | CC(=O)N[C@@H](CCCCN=[N+]=[N-])C(=O)NCCC(=O)N[C@@H](CC(C)C)C(=O)N[C@H](C(=O)N[C@@H](Cc1ccccc1)C(=O)N[C@]1(C)CCCCCCC=CCCC[C@@](C)(C(=O)N[C@@H](CCC(=O)O)C(=O)N[C@@H](CCC(=O)O)C(=O)N[C@@H](C)C(=O)N[C@@H](C)C(=O)N[C@@H](C)C(=O)N[C@@H](C)C(N)=O)NC(=O)[C@H](CC2CCC2)NC(=O)[C@H](CCC(N)=O)NC(=O)[C@H](CCC(=O)O)NC(=O)[C@H](Cc2c[nH]c3ccccc23)NC(=O)[C@H](Cc2ccc(O)cc2)NC(=O)[C@H](CCC(=O)O)NC1=O)[C@@H](C)O [MP-3685, AZIDE-ATSP-7041 (A8E, EEAAAA TAIL)] (Ac-[Lys(N3)][βAla]LTF[R8]EYWEQ[Cba][S5]EEAAAA-NH2; staple 6-13) | – | – | – | – | 195 A^2 | – | – | 150 µM (≈ 351 µg/mL) | < 4.29 | < 4.29 | 10% | -3.573% | 1.99 | 1.26 µM | – | – | –
4 | CC(=O)N[C@@H](CCCCN=[N+]=[N-])C(=O)NCCC(=O)N[C@@H](CC(C)C)C(=O)N[C@H](C(=O)N[C@@H](CCC(=O)O)C(=O)N[C@]1(C)CCCCCCC=CCCC[C@@](C)(C(=O)N[C@@H](CO)C(=O)N[C@@H](C)C(=O)N[C@@H](C)C(N)=O)NC(=O)[C@H](CC2CCC2)NC(=O)[C@H](CCC(N)=O)NC(=O)[C@H](C)NC(=O)[C@H](Cc2c[nH]c3ccccc23)NC(=O)[C@H](Cc2ccc(O)cc2)NC(=O)[C@H](CCC(=O)O)NC1=O)[C@@H](C)O [MP-843] | < 4.30 | – | – | < 4.29 | 208 A^2 | – | 0.597 µM | 151 µM (≈ 295 µg/mL) | – | – | – | – | 1.78 | – | – | – | –
5 | CC(=O)N[C@@H](CCCCN=[N+]=[N-])C(=O)NCCC(=O)N[C@@H](CC(C)C)C(=O)N[C@H](C(=O)N[C@@H](Cc1ccccc1)C(=O)N[C@]1(C)CCCCCCC=CCCC[C@@](C)(C(=O)N[C@@H](CO)C(=O)N[C@@H](C)C(=O)N[C@@H](C)C(N)=O)NC(=O)[C@H](CCC(=O)O)NC(=O)[C@H](CCC(N)=O)NC(=O)[C@H](C)NC(=O)[C@H](Cc2c[nH]c3ccccc23)NC(=O)[C@H](Cc2ccc(O)cc2)NC(=O)[C@H](CCC(=O)O)NC1=O)[C@@H](C)O [MP-841] | < 4.30 | – | – | < 4.29 | 255 A^2 | – | 0.878 µM | 162 µM (≈ 320 µg/mL) | – | – | – | – | 2.06 | – | – | – | –
6 | CC(=O)N[C@@H](CCCCN=[N+]=[N-])C(=O)NCCC(=O)N[C@@H](CC(C)C)C(=O)N[C@@H](CC1CCC1)C(=O)N[C@@H](Cc1ccc(O)cc1)C(=O)N[C@]1(C)CCCCCCC=CCCC[C@@](C)(C(=O)N[C@@H](C)C(=O)N[C@@H](C)C(=O)N[C@@H](C)C(N)=O)NC(=O)[C@H](Cc2ccccc2)NC(=O)[C@H](Cc2c[nH]c3ccccc23)NC(=O)[C@H](CCC(=O)O)NC(=O)[C@H]([C@@H](C)O)NC(=O)[C@H](CCC(N)=O)NC(=O)[C@H](CO)NC1=O [MP-4204] (Ac-[Lys(N3)][βAla]L[Cba]Y[R8]SQTEWF[S5]AAA-NH2; staple 6-13) | – | – | Poorly Behaved | < 4.29 | 191 A^2 | Poorly Behaved | 0.669 µM | – | – | – | – | – | – | – | 16.98% | – | –
7 | CC(=O)N[C@@H](CCCCN=[N+]=[N-])C(=O)N[C@@H](CCCCN)C(=O)N[C@@H](CCCCN)C(=O)N[C@@H](CC(C)C)C(=O)N[C@H](C(=O)N[C@@H](Cc1ccccc1)C(=O)N[C@]1(C)CCCCCCC=CCCC[C@@](C)(C(=O)N[C@@H](CO)C(=O)N[C@@H](C)C(=O)N[C@@H](C)C(N)=O)NC(=O)[C@H](CC2CCC2)NC(=O)[C@H](CCC(N)=O)NC(=O)[C@H](C)NC(=O)[C@H](Cc2c[nH]c3ccccc23)NC(=O)[C@H](Cc2ccc(O)cc2)NC(=O)[C@H](CCC(=O)O)NC1=O)[C@@H](C)O [MP-026] | – | – | – | < 4.30 | 213 A^2 | Poorly Behaved | 1.03 µM | 3 µM (≈ 6.47 µg/mL) | – | – | – | – | – | – | 25.62% | – | –
8 | CC(=O)N[C@@H](CCCCN=[N+]=[N-])C(=O)NCCC(=O)N[C@@H](CC(C)C)C(=O)N[C@H](C(=O)N[C@@H](Cc1ccccc1)C(=O)N[C@]1(C)CCCCCCC=CCCC[C@@](C)(C(=O)N[C@@H](CCC(=O)O)C(=O)N[C@@H](CCC(=O)O)C(=O)N[C@@H](C)C(N)=O)NC(=O)[C@H](CC2CCC2)NC(=O)[C@H](CCC(N)=O)NC(=O)[C@H](CCC(=O)O)NC(=O)[C@H](Cc2c[nH]c3ccccc23)NC(=O)[C@H](Cc2ccc(O)cc2)NC(=O)[C@H](CCC(=O)O)NC1=O)[C@@H](C)O [MP-3684] (Ac-[Lys(N3)][βAla]LTF[R8]EYWEQ[Cba][S5]EEA-NH2; staple 6-13) | – | – | – | – | – | – | – | – | < 4.29 | < 4.29 | 7.239% | 0.1213% | 1.89 | 3.88 µM | – | none | Poorly Behaved
9 | CC(=O)N[C@@H](CCCCN=[N+]=[N-])C(=O)NCCC(=O)N[C@@H](CC(C)C)C(=O)N[C@H](C(=O)N[C@@H](Cc1ccccc1)C(=O)N[C@]1(C)CCCCCCC=CCCC[C@@](C)(C(=O)N[C@@H](CO)C(=O)N[C@@H](C)C(=O)N[C@@H](C)C(N)=O)NC(=O)[C@H](CC2CCC2)NC(=O)[C@H](CCC(N)=O)NC(=O)[C@H](C)NC(=O)[C@H](CCC(=O)O)NC(=O)[C@H](Cc2ccc(O)cc2)NC(=O)[C@H](CCC(=O)O)NC1=O)[C@@H](C)O [MP-956] | < 4.30 | – | – | < 4.29 | 198 A^2 | – | 9.22 µM | 175 µM (≈ 335 µg/mL) | – | – | – | – | 1.7 | – | – | – | –
